Results from patent US20050191628A1, “Antibiotics based upon bacteriophage lysis proteins” (priority 1999, published 2005).

Legend:
Rfe = biological target: T1, Rfe (Escherichia coli, UniProt P0AC78); format: biochemical, E. coli; details: membranes of ET505 strains; average of 3 experiments ± standard deviation
T1 construct: endogenous in cells; host or cells: E. coli K-12 ET505 (W3110 lysA::Tn10) membranes, carrying pJFlacZK (control) or pEmycZK (E-expressing)
T1 sequence (P0AC78 1-367): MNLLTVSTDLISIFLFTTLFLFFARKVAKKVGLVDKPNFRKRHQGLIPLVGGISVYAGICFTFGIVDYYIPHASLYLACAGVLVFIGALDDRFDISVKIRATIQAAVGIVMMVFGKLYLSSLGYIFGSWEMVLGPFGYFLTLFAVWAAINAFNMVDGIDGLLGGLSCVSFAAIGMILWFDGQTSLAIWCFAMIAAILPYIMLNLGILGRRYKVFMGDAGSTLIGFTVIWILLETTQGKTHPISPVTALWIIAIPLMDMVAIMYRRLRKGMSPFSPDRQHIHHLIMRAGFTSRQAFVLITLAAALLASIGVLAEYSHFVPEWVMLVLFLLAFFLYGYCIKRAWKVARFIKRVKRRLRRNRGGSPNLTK

MraY = biological target: T2, MraY (Escherichia coli, UniProt P0A6W3); format: biochemical, E. coli; details: membranes of ET505 strains; average of 3 experiments ± standard deviation (tunicamycin: average of duplicates)
T2 construct: endogenous in cells; host or cells: E. coli K-12 ET505 (W3110 lysA::Tn10) membranes, carrying pJFlacZK (control) or pEmycZK (E-expressing)
T2 sequence (P0A6W3 1-360): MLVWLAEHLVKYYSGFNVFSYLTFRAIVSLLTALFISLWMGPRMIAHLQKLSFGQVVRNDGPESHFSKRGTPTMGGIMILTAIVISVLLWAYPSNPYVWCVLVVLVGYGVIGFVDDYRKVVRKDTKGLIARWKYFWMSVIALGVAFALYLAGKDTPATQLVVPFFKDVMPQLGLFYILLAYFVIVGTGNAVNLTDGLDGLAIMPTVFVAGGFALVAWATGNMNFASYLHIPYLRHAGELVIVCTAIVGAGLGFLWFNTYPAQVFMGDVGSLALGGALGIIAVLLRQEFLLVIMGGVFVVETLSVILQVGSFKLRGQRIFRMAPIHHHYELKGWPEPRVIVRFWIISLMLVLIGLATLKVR

Substance: tunicamycin
- cpm of [3H]-UMP converted to [3H]-UDP-GlcNAc in membrane preparations by Rfe (Rfe): 3400 ± 500 cpm
- cpm of [3H]-UMP converted to [3H]-UDP-MurNAc-pentapeptide in membrane preparations by MraY (MraY): 2000 cpm
